Assays:
[1] = system: Mus musculus; assay: Average weight of the mouse after treating with 20 mg/kg dose for 1 day.; format: functional; design: unit not given here
[2] = system: L1210; assay: In vivo antitumor activity against L1210 leukemia in 5 mice measured as Increased life span at 40 mg/kg.; format: functional; settings: Mus musculus
[3] = system: L1210; assay: In vivo antitumor activity against L1210 leukemia in 5 mice measured as Increased life span at 20 mg/kg.; format: functional; settings: Mus musculus
[4] = system: Mus musculus; assay: Average weight of the mouse after treating with 20 mg/kg dose for 7 day.; format: functional
[5] = system: L1210; assay: In vivo antitumor activity against L1210 leukemia in 13 mice measured as T/C values; T/C = 13/9; format: functional, Mus musculus
[6] = system: L1210; assay: In vivo antitumor activity against L1210 leukemia in 17 mice measured as T/C values; T/C = 17/9; format: functional, Mus musculus
[7] = system: L1210; assay: In vivo antitumor activity against L1210 leukemia in 5 mice measured as median survival range at 40 mg/kg; value ranges from(11-21); format: functional, Mus musculus
[8] = system: Mus musculus; assay: (§1) Average weight of the mouse after treating with 40 mg/kg dose for 1 day.; format: functional; design: unit not given here
[9] = system: Mus musculus; assay: (§2) Average weight of the mouse after treating with 40 mg/kg dose for 7 days.; format: functional
[10] = system: L1210; assay: In vivo antitumor activity against L1210 leukemia in 5 mice measured as median survival range at 20 mg/kg; Value ranges from(11-19); format: functional, Mus musculus
[11] = system: Mus musculus; assay: as §2; format: functional; design: unit not given beside the values
[12] = system: L1210; assay: In vivo antitumor activity against L1210 leukemia in 5 mice measured as median survival range at 10 mg/kg; Value ranges from(14-22); format: functional, Mus musculus
[13] = system: L1210; assay: In vivo antitumor activity against L1210 leukemia in 16 mice measured as T/C values; T/C = 16/9; format: functional, Mus musculus
[14] = system: Mus musculus; assay: Average weight of the mouse after treating with 20 mg/kg dose for 7 days.; format: functional; design: unit not given beside the values
[15] = system: Mus musculus; assay: as §1; format: functional
[16] = system: L1210; assay: In vivo antitumor activity against L1210 leukemia in 5 mice measured as T/C values; T/C = 22/9; format: functional, Mus musculus
[17] = system: L1210; assay: In vivo anti tumor activity against L1210 leukemia in 5 mice measured as Increased life span at 40 mg/kg.; format: functional; settings: Mus musculus
[18] = system: L1210; assay: In vivo antitumor activity against L1210 leukemia in 5 mice measured as Increased life span at 10 mg/kg.; format: functional; settings: Mus musculus
[19] = system: L1210; assay: In vivo antitumor activity against L1210 leukemia in 5 mice measured as median survival range at 20 mg/kg; Value ranges from(15-17).; format: functional, Mus musculus
[20] = system: Mus musculus; assay: Average weight of the mouse after treating with 10 mg/kg dose for 1 day.; format: functional; design: unit not given here
[21] = system: L1210; assay: In vivo antitumor activity against L1210 leukemia in 5 mice measured as median survival range at 40 mg/kg; Value ranges from(21-31).; format: functional, Mus musculus
[22] = system: Mus musculus; assay: Average weight of the mouse after treating with 10 mg/kg dose for 7 days.; format: functional
[23] = system: L1210; assay: In vivo antitumor activity against L1210 leukemia in 19 mice measured as T/C value; T/C = 19/9; format: functional, Mus musculus
[24] = system: Mus musculus; assay: Average weight of the mouse after treating with 80 mg/kg dose for 7 days.; format: functional; design: unit not given beside the values
[25] = system: Mus musculus; assay: Average weight of the mouse after treating with 80 mg/kg dose for 1 day.; format: functional; design: unit not given here
[26] = system: L1210; assay: In vivo antitumor activity against L1210 leukemia in 5 mice measured as median survival range at 80 mg/kg; Value ranges from(13-20).; format: functional, Mus musculus
[27] = system: L1210; assay: In vivo antitumor activity against L1210 leukemia in 5 mice measured as median survival range at 40 mg/kg; Value ranges from(14-17); design: dose 40 mg/kg; settings: mouse
[28] = system: L1210; assay: In vivo antitumor activity against L1210 leukemia in 5 mice measured as Increased life span.; format: functional, Mus musculus
[29] = system: L1210; assay: In vivo antitumor activity against L1210 leukemia in 5 mice measured as median survival range at 20 mg/kg; Value ranges from(12-14); format: functional, Mus musculus
[30] = system: L1210; assay: In vivo antitumor activity against L1210 leukemia in 5 mice measured as Increased life span at 80 mg/kg.; format: functional; settings: Mus musculus
[31] = system: L1210; assay: In vivo antitumor activity against L1210 leukemia in 5 mice measured as median survival range at 20 mg/kg; Value ranges from(11-14); format: functional, Mus musculus
[32] = system: L1210; assay: In vivo antitumor activity against L1210 leukemia in 14 mice measured as T/C values(days); T/C = 14/9; format: functional, Mus musculus
[33] = system: L1210; assay: In vivo antitumor activity against L1210 leukemia in 5 mice measured as median survival range at 40 mg/kg; Value ranges from(13-19); format: functional, Mus musculus
[34] = system: Mus musculus; assay: Average weight of the mouse after treating with 120 mg/kg dose for 7 days.; format: functional
[35] = system: Mus musculus; assay: Average weight of the mouse after treating with 140 mg/kg dose for 1 day.; format: functional
[36] = system: L1210; assay: In vivo antitumor activity against L1210 leukemia in 10 mice measured as median survival range at 120 mg/kg; Value ranges from(13-36); format: functional, Mus musculus
[37] = system: L1210; assay: In vivo antitumor activity against L1210 leukemia in 5 mice measured as median survival range at 80 mg/kg; Value ranges from(13-26); format: functional, Mus musculus
[38] = system: L1210; assay: In vivo antitumor activity against L1210 leukemia in 5 mice measured as Increased life span at 140 mg/kg.; format: functional; settings: Mus musculus
[39] = system: L1210; assay: In vivo antitumor activity against L1210 leukemia in 22 mice measured as T/C values(days); T/C = 22/9; format: functional, Mus musculus
[40] = system: L1210; assay: In vivo antitumor activity against L1210 leukemia in 23 mice measured as T/C values(days); T/C = 23/9; format: functional, Mus musculus
[41] = system: Mus musculus; assay: Average weight of the mouse after treating with 140 mg/kg dose for 7 days.; format: functional
[42] = system: L1210; assay: In vivo antitumor activity against L1210 leukemia in 5 mice measured as T/C values(days); T/C = 21/9; format: functional, Mus musculus
[43] = system: L1210; assay: In vivo antitumor activity against L1210 leukemia in 5 mice measured as median survival range at 140 mg/kg; Value ranges from(8-27).; format: functional, Mus musculus
[44] = system: L1210; assay: In vivo antitumor activity against L1210 leukemia in 15 mice measured as T/C values(days); T/C = 15/9; format: functional, Mus musculus
[45] = system: Mus musculus; assay: Average weight of the mouse after treating with 120 mg/kg dose for 1 day.; format: functional
[46] = system: L1210; assay: In vivo antitumor activity against L1210 leukemia in 10 mice measured as Increased life span at 120 mg/kg.; format: functional; settings: Mus musculus

Compound: Cc1cc(C)c(COC(=O)CCC(NC(=O)c2ccc(N(C)Cc3cnc4nc(N)nc(N)c4n3)cc2)C(=O)OCc2c(C)cc(C)cc2C)c(C)c1 (stereo not drawn)
- Average weight [1]: 20.4
- ILS at 40 mg/kg [2]: 88%
- ILS at 20 mg/kg [3]: 44%
- Weight change [4]: 0.8
- T/C [5]: 9
- T/C [6]: 9
- Range [7]: 21
- Average weight [8]: 22
- Weight change [9]: 0
- Range [10]: 19

Compound: CN(Cc1cnc2nc(N)nc(N)c2n1)c1ccc(C(=O)NC(CCC(=O)OCc2cccnc2)C(=O)OCc2cccnc2)cc1 (stereo not drawn)
- Average weight [1]: 22
- Weight change [11]: 2
- Range [12]: 22
- T/C [13]: 9
- Weight change [14]: 1
- ILS at 20 mg/kg [3]: 77%
- Average weight [15]: 26
- T/C [16]: 9
- ILS at 40 mg/kg [17]: 144%
- T/C [6]: 9
- ILS at 10 mg/kg [18]: 88%
- Range [19]: 17
- Average weight [20]: 21.3
- Range [21]: 31
- Weight change [22]: 1.1

Compound: CCCCOC(=O)C(CCC(=O)OCc1cccnc1)NC(=O)c1ccc(N(C)Cc2cnc3nc(N)nc(N)c3n2)cc1 (stereo not drawn)
- Average weight [1]: 21.1
- Weight change [11]: 1.7
- T/C [23]: 9
- ILS at 40 mg/kg [2]: 75%
- Weight change [14]: 2.4
- ILS at 20 mg/kg [3]: 50%
- Weight change [24]: 0.3
- Average weight [25]: 22
- Range [26]: 20
- Range [27]: 17
- ILS [28]: 137%
- Average weight [8]: 21.2
- Range [29]: 14

Compound: CCCC(C)OC(=O)CCC(NC(=O)c1cc(Cl)c(N(C)Cc2cnc3nc(N)nc(N)c3n2)c(Cl)c1)C(=O)OC(C)CCC (stereo not drawn)
- ILS at 80 mg/kg [30]: 133%
- Range [31]: 14
- T/C [32]: 9
- Average weight [1]: 22.1
- Weight change [11]: 0.1
- Range [33]: 19
- ILS at 40 mg/kg [2]: 66%
- Weight change [14]: 2.6
- Weight change [34]: 1.4
- ILS at 20 mg/kg [3]: 55%
- Average weight [35]: 21.6
- Range [36]: 36
- Weight change [24]: 1.5
- Range [37]: 26
- Average weight [25]: 21.2
- ILS at 140 mg/kg [38]: 155%
- T/C [39]: 22
- T/C [40]: 9
- Weight change [41]: 3.2
- T/C [42]: 9
- Range [43]: 27
- T/C [44]: 9
- Average weight [8]: 20.6
- Average weight [45]: 21.5
- ILS at 120 mg/kg [46]: 145%

Source: ChEMBL document CHEMBL1122370 (J Med Chem, 1983)
